These results are taken from ChEMBL document CHEMBL4418299, “Compounds useful as csf1 modulators” (2016).

Structures are written as SMILES. pIC50: −log10 of the molar value.

Macrophage colony-stimulating factor 1 receptor, sequence (P07333 whole entry, the tested form may be a part): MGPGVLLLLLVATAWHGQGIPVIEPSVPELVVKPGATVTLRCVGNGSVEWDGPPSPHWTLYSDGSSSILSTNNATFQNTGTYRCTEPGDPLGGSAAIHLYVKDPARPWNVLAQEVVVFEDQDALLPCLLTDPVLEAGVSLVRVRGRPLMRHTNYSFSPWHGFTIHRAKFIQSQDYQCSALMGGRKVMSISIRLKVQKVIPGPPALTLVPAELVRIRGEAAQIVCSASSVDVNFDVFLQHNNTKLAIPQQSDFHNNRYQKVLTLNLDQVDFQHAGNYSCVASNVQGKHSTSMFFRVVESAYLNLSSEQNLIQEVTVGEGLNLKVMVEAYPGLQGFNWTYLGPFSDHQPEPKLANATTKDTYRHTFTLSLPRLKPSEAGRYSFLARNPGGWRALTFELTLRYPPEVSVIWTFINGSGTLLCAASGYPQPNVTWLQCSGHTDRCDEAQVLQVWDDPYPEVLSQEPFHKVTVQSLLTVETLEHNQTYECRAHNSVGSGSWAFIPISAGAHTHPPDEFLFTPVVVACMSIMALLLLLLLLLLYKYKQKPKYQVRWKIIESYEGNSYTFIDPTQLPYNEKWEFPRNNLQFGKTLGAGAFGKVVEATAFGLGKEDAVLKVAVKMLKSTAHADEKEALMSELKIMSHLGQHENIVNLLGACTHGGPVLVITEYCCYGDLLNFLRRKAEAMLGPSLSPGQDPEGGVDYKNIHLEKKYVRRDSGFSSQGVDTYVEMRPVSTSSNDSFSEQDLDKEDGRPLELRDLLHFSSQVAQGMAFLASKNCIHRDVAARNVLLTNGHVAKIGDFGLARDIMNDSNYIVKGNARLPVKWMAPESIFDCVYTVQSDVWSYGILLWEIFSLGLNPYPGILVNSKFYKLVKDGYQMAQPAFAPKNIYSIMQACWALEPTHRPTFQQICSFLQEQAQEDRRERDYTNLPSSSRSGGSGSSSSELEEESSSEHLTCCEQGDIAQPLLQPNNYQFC

The assay concerns the target Macrophage colony-stimulating factor 1 receptor (Homo sapiens, UniProt P07333). As to the kind of experiment: Displacement of kinase tracer 236 from recombinant human His-tagged CSF1R cytoplasmic domain (538 to 910 residues) expressed in baculovirus-infected insect cells measured after 5 hrs by TR-FRET based LanthaScreen assay.
In the case of `Nc1ncnc2c3c(n(-c4ccc(NC(=O)Cc5cnn(-c6ccccc6)c5)cc4)c12)CCC3`, the negative logarithm of the IC50 (pIC50) was 6.70 to 8.00.

On to `Nc1ncnc2c3c(n(-c4ccc(NC(=O)C(F)c5ccccc5)cc4)c12)CCC3` (stereo not drawn), for which the pIC50 was less than 6.70.

`Cc1ccc(F)c(CC(=O)Nc2ccc(-n3c4c(c5ncnc(N)c53)COC4)cc2F)c1`: the pIC50 is less than 6.70.

Regarding `COc1cc(-n2c3c(c4ncnc(N)c42)CCC3)ccc1NC(=O)Cc1ccc(C(F)(F)F)nc1`, the negative logarithm of the IC50 (pIC50) is greater than 8.00.

For `COc1cc(-n2c3c(c4ncnc(N)c42)CCC3)ccc1CC(=O)N1CCOc2ccccc21`, the pIC50 was greater than 8.00.

On to `COc1ccc(CC(=O)Nc2ccc(-n3c4c(c5ncnc(N)c53)CCC4)cc2OC)nc1`, for which the pIC50 is 6.70 to 8.00.

Regarding `Nc1ncnc2c3c(n(-c4ccc(NC(=O)Cc5ccnc(C(F)(F)F)c5)cc4)c12)COC3`, the negative-log IC50 (pIC50) was 6.70 to 8.00.

For the molecule `COc1cc(-n2c3c(c4ncnc(N)c42)COC3)ccc1NC(=O)Cc1cc(C)ccc1F`, the negative-log IC50 (pIC50) is 6.70 to 8.00.

Regarding `COc1ccc(CC(=O)Nc2ccc(-n3c4c(c5ncnc(N)c53)COC4)cc2)c(F)c1`, the negative-log IC50 (pIC50) was 6.70 to 8.00.

Regarding `Nc1ncnc2c3c(n(-c4ccc(CC(=O)Nc5cnc(C(F)(F)F)nc5)cc4)c12)CCC3`, the negative logarithm of the IC50 (pIC50) is 6.70 to 8.00.

Take `Nc1ncnc2c3c(n(-c4ccc(NC(=O)Cc5ccc(Cl)c(C(F)(F)F)c5)cc4)c12)CCC3`: the negative logarithm of the IC50 (pIC50) is 7.85.

Take `COc1cc(-n2c3c(c4ncnc(N)c42)COC3)ccc1NC(=O)Cc1ccc(C(F)(F)F)nc1`: the negative-log IC50 (pIC50) was 6.70 to 8.00.

In the case of `Nc1ncnc2c3c(n(-c4ccc(NC(=O)Cc5coc(-c6ccccc6)n5)cc4)c12)CCC3`, the pIC50 is 6.70 to 8.00.

For `COc1cc(CC(=O)Nc2ccc(-n3c4c(c5ncnc(N)c53)CCC4)cc2OC)ccc1C`, the negative logarithm of the IC50 (pIC50) is greater than 8.00.

`Nc1ncnc2c3c(n(-c4ccc(NC(=O)Cc5cc(C(F)(F)F)ccc5Cl)cc4)c12)CCC3`: the pIC50 was 6.70 to 8.00.

Regarding `COc1cc(-n2c3c(c4ncnc(N)c42)CCC3)ccc1NC(=O)Cc1ccc(Cl)c(C(F)(F)F)c1`, the pIC50 was 6.70 to 8.00.

For `COc1cc(-n2c3c(c4ncnc(N)c42)COC3)ccc1NC(=O)Cc1ccccc1`, the pIC50 is greater than 8.00.

For `Nc1ncnc2c3c(n(-c4ccc(CC(=O)NCc5ccccc5)cc4)c12)CCC3`, the negative-log IC50 (pIC50) is 6.70 to 8.00.

For the molecule `CN1CCN(CC(=O)Nc2ccc(-n3c4c(c5ncnc(N)c53)CCC4)cc2)CC1`, the pIC50 was less than 6.70.

With `Nc1ncnc2c3c(n(-c4ccc(NC(=O)Cc5ccccc5)nc4)c12)CCC3`, the pIC50 is less than 6.70.

Consider `COc1ccccc1CC(=O)Nc1ccc(-n2c3c(c4ncnc(N)c42)CCC3)cc1`, for which the negative-log IC50 (pIC50) is greater than 8.00.

In the case of `COc1cc(-n2c3c(c4ncnc(N)c42)COC3)ccc1NC(=O)Cc1cnc2c(ccn2C)c1`, the negative logarithm of the IC50 (pIC50) is 7.49.

In the case of `COc1cc(-n2c3c(c4ncnc(N)c42)CCC3)ccc1CC(=O)Nc1ccccc1`, the pIC50 was 6.70 to 8.00.

For the molecule `Nc1ncnc2c3c(n(-c4ccc(CC(=O)Nc5cccnc5)cc4)c12)CCC3`, the pIC50 is less than 6.70.

`COc1ccc(CC(=O)Nc2ccc(-n3c4c(c5ncnc(N)c53)COC4)cc2F)c(F)c1`: the negative-log IC50 (pIC50) is less than 6.70.

In the case of `Nc1ncnc2c3c(n(-c4ccc(NC(=O)Cc5ccc(C(F)(F)F)nc5)cc4)c12)COC3`, the pIC50 is 6.70 to 8.00.

For the molecule `Cc1ccc(CC(=O)Nc2ccc(-n3c4c(c5ncnc(N)c53)COC4)cc2)cc1F`, the pIC50 is 6.70 to 8.00.

In the case of `COc1cc(-n2c3c(c4ncnc(N)c42)CCC3)ccc1NC(=O)Cc1ccnc(C(F)(F)F)c1`, the pIC50 is greater than 8.00.

Take `Nc1ncnc2c3c(n(-c4ccc(NC(=O)Cc5ccc(O)cc5)cc4)c12)CCC3`: the pIC50 is 7.54.

`COc1cc(-n2c3c(c4ncnc(N)c42)CCC3)ccc1NC(=O)Cc1ccccn1`: the negative logarithm of the IC50 (pIC50) was greater than 8.00.

As to `COc1cc(-n2c3c(c4ncnc(N)c42)CCC3)ccc1NC(=O)Cc1cnccn1`, the negative-log IC50 (pIC50) is less than 6.70.

As for `Cn1cc(CCC(=O)Nc2ccc(-n3c4c(c5ncnc(N)c53)CCC4)cc2)c2ccccc21`, the negative logarithm of the IC50 (pIC50) was 6.70 to 8.00.

As for `COc1ccc(NC(=O)Cc2ccc(-n3c4c(c5ncnc(N)c53)CCC4)cc2)nn1`, the pIC50 is less than 6.70.

Turning to `Cn1ccc2cc(CC(=O)Nc3ccc(-n4c5c(c6ncnc(N)c64)CCC5)cc3)cnc21`, the negative-log IC50 (pIC50) was greater than 8.00.

As to `NC(=O)c1ccc(CC(=O)Nc2ccc(-n3c4c(c5ncnc(N)c53)CCC4)cc2)cc1C(F)(F)F`, the negative logarithm of the IC50 (pIC50) was 6.70 to 8.00.

Regarding `COc1cccc(CC(=O)Nc2ccc(-n3c4c(c5ncnc(N)c53)CCC4)cc2OC)n1`, the pIC50 is 6.70 to 8.00.

Take `CN(C)c1cc(CC(=O)Nc2ccc(-n3c4c(c5ncnc(N)c53)CCC4)cc2)ccc1C(F)(F)F`: the pIC50 was 6.70 to 8.00.

Take `Nc1ncnc2c3c(n(-c4ccc(NC(=O)CCCN5CCOCC5)cc4)c12)CCC3`: the pIC50 was 6.70 to 8.00.

With `COc1ccc(NC(=O)Cc2ccc(-n3c4c(c5ncnc(N)c53)CCC4)cc2OC)c(F)c1`, the negative logarithm of the IC50 (pIC50) is greater than 8.00.

As to `COc1cc(-n2c3c(c4ncnc(N)c42)COC3)ccc1NC(=O)Cc1cc(C(F)(F)F)ccc1F`, the pIC50 is 6.70 to 8.00.

For `Nc1ncnc2c3c(n(-c4ccc(NC(=O)Cc5c(F)cc(Cl)cc5F)cc4)c12)CCC3`, the negative logarithm of the IC50 (pIC50) was 6.70 to 8.00.

As for `N#Cc1ccc(CC(=O)Nc2ccc(-n3c4c(c5ncnc(N)c53)CCC4)cc2)cc1`, the negative-log IC50 (pIC50) is greater than 8.00.

With `Nc1ncnc2c3c(n(-c4ccc(NC(=O)CC5CCN(C(=O)OCc6ccccc6)CC5)cc4)c12)CCC3`, the pIC50 was 6.70 to 8.00.

For the molecule `COc1cc(-n2c3c(c4ncnc(N)c42)CCC3)ccc1NC(=O)Cc1ccc(C(F)(F)F)nn1`, the negative logarithm of the IC50 (pIC50) is 8.05.

`Nc1ncnc2c3c(n(-c4ccc(NC(=O)Cc5cccnc5)cc4)c12)CCC3`: the pIC50 was 6.70 to 8.00.

Turning to `COc1cc(-n2c3c(c4ncnc(N)c42)CCC3)ccc1NC(=O)Cc1cc(C(F)(F)F)ccc1F`, the pIC50 is 6.70 to 8.00.

`Nc1ncnc2c3c(n(-c4ccc(NC(=O)Cc5ccccc5)c(F)c4)c12)CCC3`: the pIC50 is less than 6.70.

As to `COc1cc(-n2c3c(c4ncnc(N)c42)CCC3)ccc1NC(=O)Cc1ccccc1`, the pIC50 was 6.70 to 8.00.

As to `COc1cc(-n2c3c(c4ncnc(N)c42)COC3)ccc1NC(=O)Cc1ccnc(C(F)(F)F)c1`, the negative logarithm of the IC50 (pIC50) was 7.30.

As to `COc1cc(-n2c3c(c4ncnc(N)c42)CCC3)ccc1NC(=O)Cc1ccc2c(ccn2C)c1`, the negative logarithm of the IC50 (pIC50) was greater than 8.00.

Turning to `Cn1ccc(CC(=O)Nc2ccc(-n3c4c(c5ncnc(N)c53)CCC4)cc2)n1`, the negative-log IC50 (pIC50) was less than 6.70.

In the case of `Nc1ncnc2c3c(n(-c4ccc(NC(=O)[C@@H](N)Cc5ccccc5)cc4)c12)CCC3`, the negative logarithm of the IC50 (pIC50) was less than 6.70.

In the case of `COc1cc(-n2c3c(c4ncnc(N)c42)CCC3)ccc1NC(=O)Cc1ccc(C)cc1F`, the pIC50 was greater than 8.00.

Turning to `Nc1ncnc2c3c(n(-c4ccc(NC(=O)Cc5ccc6c(c5)OCO6)cc4)c12)CCC3`, the negative-log IC50 (pIC50) is 6.70 to 8.00.

Regarding `Nc1ncnc2c3c(n(-c4ccc(CC(=O)NC5CCCCC5)cc4)c12)CCC3`, the pIC50 was 6.70 to 8.00.

`COc1ccc(CC(=O)Nc2ccc(-n3c4c(c5ncnc(N)c53)CCC4)cc2OC)cn1`: the pIC50 is 6.70 to 8.00.

Consider `COc1ccc(CC(=O)Nc2ccc(-n3c4c(c5ncnc(N)c53)COC4)cc2)cc1F`, for which the pIC50 is 7.85.

Take `COc1cc(-n2c3c(c4ncnc(N)c42)CCC3)ccc1NC(=O)Cc1cc(C)no1`: the pIC50 is 6.70 to 8.00.

Consider `Cc1cnc(CC(=O)Nc2ccc(-n3c4c(c5ncnc(N)c53)CCC4)cc2)c(F)c1`, for which the pIC50 is 6.70 to 8.00.

With `COc1ccc(CC(=O)Nc2ccc(-n3c4c(c5ncnc(N)c53)CCC4)cc2OC)cc1C`, the negative logarithm of the IC50 (pIC50) was greater than 8.00.

Consider `COc1cc(-n2c3c(c4ncnc(N)c42)CCC3)ccc1NC(=O)Cc1ccc(C)c(F)c1`, for which the negative logarithm of the IC50 (pIC50) was greater than 8.00.

`Nc1ncnc2c3c(n(-c4ccc(NC(=O)Cc5ccccc5)cc4)c12)COC3`: the negative logarithm of the IC50 (pIC50) was greater than 8.00.

Consider `COc1cc(-n2c3c(c4ncnc(N)c42)CCC3)ccc1NC(=O)Cc1cnc2c(ccn2C)c1`, for which the pIC50 was greater than 8.00.

Take `COc1cc(-n2c3c(c4ncnc(N)c42)COC3)ccc1NC(=O)Cc1ccc(Cl)c(C(F)(F)F)c1`: the negative logarithm of the IC50 (pIC50) is greater than 8.00.

For `COc1ccc(CC(=O)Nc2ccc(-n3c4c(c5ncnc(N)c53)COC4)cc2OC)cn1`, the pIC50 was 6.70 to 8.00.

Consider `COc1cc(-n2c3c(c4ncnc(N)c42)CCC3)ccc1NC(=O)Cc1ncc(C)cc1F`, for which the pIC50 was 6.70 to 8.00.

As to `COc1ccc(CC(=O)Nc2ccc(-n3c4c(c5ncnc(N)c53)COC4)cc2OC)cc1F`, the negative logarithm of the IC50 (pIC50) was 6.70 to 8.00.

Turning to `Nc1ncnc2c3c(n(-c4ccc(NC(=O)Cc5ccncc5)cc4)c12)CCC3`, the pIC50 was less than 6.70.

For the molecule `Nc1ncnc2c3c(n(-c4ccc(NC(=O)CN5CCCC5)cc4)c12)CCC3`, the pIC50 was less than 6.70.

As for `Nc1ncnc2c3c(n(-c4ccc(NC(=O)Cc5ccc(C(F)(F)F)nn5)cc4)c12)COC3`, the negative logarithm of the IC50 (pIC50) is 6.70 to 8.00.

As for `COc1cc(-n2c3c(c4ncnc(N)c42)CCC3)ccc1NC(=O)Cc1coc(-c2ccccc2)n1`, the pIC50 was 6.70 to 8.00.

Regarding `CC(=O)N1CCC(CC(=O)Nc2ccc(-n3c4c(c5ncnc(N)c53)CCC4)cc2)CC1`, the negative logarithm of the IC50 (pIC50) is less than 6.70.

As to `Nc1ncnc2c3c(n(-c4ccc(NC(=O)CN5CCOCC5)cc4)c12)CCC3`, the pIC50 is less than 6.70.

Consider `Nc1ncnc2c3c(n(-c4ccc(NC(=O)Cn5ccnc5)cc4)c12)CCC3`, for which the pIC50 was less than 6.70.

As to `Nc1ncnc2c3c(n(-c4ccc(NC(=O)CCc5ccccc5)cc4)c12)CCC3`, the pIC50 was 6.70 to 8.00.

As for `Nc1ncnc2c3c(n(-c4ccc(NC(=O)Cc5ccc(Cl)nn5)cc4)c12)COC3`, the negative-log IC50 (pIC50) was less than 6.70.

For the molecule `COc1ccc(CC(=O)Nc2ccc(-n3c4c(c5ncnc(N)c53)CCC4)cc2OC)cc1F`, the pIC50 is greater than 8.00.

Regarding `COc1cc(-n2c3c(c4ncnc(N)c42)COC3)ccc1NC(=O)Cc1ccc(OC)c(C(F)(F)F)c1`, the pIC50 was greater than 8.00.

Regarding `COc1cc(-n2c3c(c4ncnc(N)c42)COC3)ccc1NC(=O)Cc1ccc(C(F)(F)F)nn1`, the negative-log IC50 (pIC50) is 6.70 to 8.00.

Turning to `Cn1cc(CC(=O)Nc2ccc(-n3c4c(c5ncnc(N)c53)CCC4)cc2)cn1`, the pIC50 was 6.70 to 8.00.

As for `Nc1ncnc2c3c(n(-c4ccc(NC(=O)[C@@H](N)c5ccccc5)cc4)c12)CCC3`, the negative logarithm of the IC50 (pIC50) is less than 6.70.

For the molecule `COc1cccc(CC(=O)Nc2ccc(-n3c4c(c5ncnc(N)c53)CCC4)cc2)n1`, the pIC50 was 6.70 to 8.00.

Consider `Cn1cc(C(=O)Nc2ccc(-n3c4c(c5ncnc(N)c53)CCC4)cc2)c2ccccc21`, for which the pIC50 was 6.70 to 8.00.
